Source: the NIST ThermoML archive (doi:10.1021/je3010062)
Numbers after ± are expanded uncertainties.

Conditions: 101.33 kPa, Liquid; for viscosity: Concentric cylinders viscometry; for mass density: Vibrating tube method; for electrical conductivity: syringe-type cell with a pair of platinum electrodes

Row | SMILES | viscosity (273.15 K) | mass density (273.15 K) | electrical conductivity (273.15 K) | viscosity (278.15 K) | mass density (278.15 K) | electrical conductivity (278.15 K) | viscosity (283.15 K) | mass density (283.15 K) | electrical conductivity (283.15 K) | viscosity (288.15 K) | mass density (288.15 K) | electrical conductivity (288.15 K) | viscosity (293.15 K) | mass density (293.15 K) | electrical conductivity (293.15 K) | viscosity (298.15 K) | mass density (298.15 K) | electrical conductivity (298.15 K) | viscosity (303.15 K) | mass density (303.15 K) | other results
1 | CCCCCCC[N+](C)(C)CC.O=S(=O)([N-]S(=O)(=O)C(F)(F)F)C(F)(F)F | 944.3 ± 53 mPa·s | 1311.95 ± 1.4 kg/m3 | 0.0157 ± 0.00063 S/m | 634.1 ± 34 mPa·s | 1307.78 ± 1.4 kg/m3 | 0.023 ± 0.00092 S/m | 437.8 ± 22 mPa·s | 1303.56 ± 1.4 kg/m3 | 0.0328 ± 0.0013 S/m | 310.5 ± 15 mPa·s | 1299.38 ± 1.4 kg/m3 | 0.0454 ± 0.0018 S/m | 225.7 ± 10 mPa·s | 1295.2 ± 1.4 kg/m3 | 0.0614 ± 0.0024 S/m | 167.7 ± 7.5 mPa·s | 1291 ± 1.4 kg/m3 | 0.081 ± 0.0032 S/m | 127.6 ± 5.5 mPa·s | 1286.82 ± 1.4 kg/m3 | electrical conductivity (303.15 K): 0.105 ± 0.0042 S/m; viscosity (313.15 K): 77.77 ± 3.3 mPa·s; mass density (313.15 K): 1278.51 ± 1.4 kg/m3; electrical conductivity (313.15 K): 0.167 ± 0.0067 S/m; viscosity (323.15 K): 50.63 ± 2.1 mPa·s; mass density (323.15 K): 1270.28 ± 1.3 kg/m3; electrical conductivity (323.15 K): 0.249 ± 0.01 S/m; viscosity (333.15 K): 34.68 ± 1.4 mPa·s; mass density (333.15 K): 1262.09 ± 1.3 kg/m3; electrical conductivity (333.15 K): 0.353 ± 0.014 S/m; viscosity (343.15 K): 24.84 ± 1 mPa·s; mass density (343.15 K): 1253.97 ± 1.3 kg/m3; electrical conductivity (343.15 K): 0.48 ± 0.019 S/m; viscosity (353.15 K): 18.49 ± 0.76 mPa·s; mass density (353.15 K): 1245.9 ± 1.3 kg/m3; electrical conductivity (353.15 K): 0.631 ± 0.025 S/m; viscosity (363.15 K): 14.18 ± 0.58 mPa·s; mass density (363.15 K): 1237.87 ± 1.3 kg/m3
2 | CC[N+](C)(C)CCOCCOC.O=S(=O)([N-]S(=O)(=O)C(F)(F)F)C(F)(F)F | 243.5 ± 11 mPa·s | 1414.1 ± 1.5 kg/m3 | 0.0681 ± 0.0027 S/m | 173.6 ± 7.8 mPa·s | 1409.65 ± 1.5 kg/m3 | 0.0936 ± 0.0037 S/m | 127.5 ± 5.6 mPa·s | 1404.97 ± 1.5 kg/m3 | 0.125 ± 0.005 S/m | 96.35 ± 4.1 mPa·s | 1400.31 ± 1.5 kg/m3 | 0.162 ± 0.0065 S/m | 74.27 ± 3.1 mPa·s | 1395.68 ± 1.5 kg/m3 | 0.206 ± 0.0082 S/m | 58.57 ± 2.4 mPa·s | 1391.07 ± 1.5 kg/m3 | 0.257 ± 0.01 S/m | 47.19 ± 1.9 mPa·s | 1386.49 ± 1.5 kg/m3 | electrical conductivity (303.15 K): 0.315 ± 0.013 S/m; viscosity (313.15 K): 32.03 ± 1.3 mPa·s; mass density (313.15 K): 1377.4 ± 1.5 kg/m3; electrical conductivity (313.15 K): 0.451 ± 0.018 S/m; viscosity (323.15 K): 22.89 ± 0.94 mPa·s; mass density (323.15 K): 1368.39 ± 1.5 kg/m3; electrical conductivity (323.15 K): 0.616 ± 0.025 S/m; viscosity (333.15 K): 17.02 ± 0.69 mPa·s; mass density (333.15 K): 1359.45 ± 1.4 kg/m3; electrical conductivity (333.15 K): 0.81 ± 0.032 S/m; viscosity (343.15 K): 13.14 ± 0.54 mPa·s; mass density (343.15 K): 1350.57 ± 1.4 kg/m3; electrical conductivity (343.15 K): 1.02 ± 0.041 S/m; viscosity (353.15 K): 10.39 ± 0.42 mPa·s; mass density (353.15 K): 1341.75 ± 1.4 kg/m3; electrical conductivity (353.15 K): 1.27 ± 0.051 S/m; viscosity (363.15 K): 8.433 ± 0.34 mPa·s; mass density (363.15 K): 1332.98 ± 1.4 kg/m3
